Results: patent publication US20230348442A1, “GALECTIN-3 INHIBITING 2-HYDROXYCYCLOALKANE-1-CARBAMOYL DERIVATIVES” (Idorsia Pharmaceuticals Ltd, priority 2020, published 2023)

The molecules below were run against human Gal-3 (hGal-3) (Homo sapiens (Human), UniProt P17931) (assay: competitive binding assay: binding of biotinylated hGal-3 to microplate-adsorbed asialofetuin (ASF), spectrophotometric). Details: Activity on hGal-3; mean values of several measurements.
Summary of the method: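 Compounds diluted in DMSO competed with biotinylated hGal-3 or hGal-1 (300-1000 ng/mL) for binding to plate-adsorbed asialofetuin for 3 h at 4° C. Bound galectin was detected with streptavidin-peroxidase (80 ng/mL, 1 h, 4° C) and ABTS substrate; IC50 reported as mean of several measurements.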

Sequence of human Gal-3 (hGal-3) (P17931 whole entry): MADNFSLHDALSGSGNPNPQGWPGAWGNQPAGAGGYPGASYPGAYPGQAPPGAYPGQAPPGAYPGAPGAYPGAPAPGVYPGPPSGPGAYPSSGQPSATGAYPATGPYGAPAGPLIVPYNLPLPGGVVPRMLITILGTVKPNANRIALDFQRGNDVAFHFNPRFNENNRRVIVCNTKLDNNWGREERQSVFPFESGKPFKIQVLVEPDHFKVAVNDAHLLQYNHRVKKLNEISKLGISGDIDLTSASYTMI

CO[C@@H]1[C@@H](n2cc(-c3cc(F)c(Cl)c(F)c3)nn2)[C@@H](O)[C@@H](CO)O[C@H]1C(=O)N(c1cc(Cl)cc(C#N)c1)[C@H]1CCC[C@@H]1O [Example 1.5.4, (2R,3R,4S,5R,6R)-4-(4-(4-chloro-3,5-difluorophenyl)-1H-1,2,3-triazol-1-yl)-N-(3-chloro-5-cyanophenyl)-5-hydroxy-N-((1S,2S)-2-hydroxycyclopentyl)-6-(hydroxymethyl)-3-methoxytetrahydro-2H-pyran-2-carboxamide] and CO[C@@H]1[C@@H](n2cc(-c3cc(F)c(Cl)c(Cl)c3)nn2)[C@@H](O)[C@@H](CO)O[C@H]1C(=O)N(c1cc(Cl)cc(C#N)c1)[C@H]1CCC[C@@H]1O [Example 1.17.4, (2R,3R,4S,5R,6R)-N-(3-chloro-5-cyanophenyl)-4-(4-(3,4-dichloro-5-fluorophenyl)-1H-1,2,3-triazol-1-yl)-5-hydroxy-N-((1S,2S)-2-hydroxycyclopentyl)-6-(hydroxymethyl)-3-methoxytetrahydro-2H-pyran-2-carboxamide] are within 1.5-fold of each other in IC50: 36.7 nM for the first, 29.7 nM for the second.

Compared with COc1cc(-c2cn([C@H]3[C@@H](O)[C@@H](CO)O[C@@H](C(=O)N(c4cc(Br)cc(Br)c4)[C@H]4CCC[C@@H]4O)[C@@H]3OC)nn2)cc(F)c1F [Example 1.3.11, (2R,3R,4S,5R,6R)-N-(3,5-dibromophenyl)-4-(4-(3,4-difluoro-5-methoxyphenyl)-1H-1,2,3-triazol-1-yl)-5-hydroxy-N-((1S,2S)-2-hydroxycyclopentyl)-6-(hydroxymethyl)-3-methoxytetrahydro-2H-pyran-2-carboxamide], COc1cc(-c2cn([C@H]3[C@@H](O)[C@@H](CO)O[C@@H](C(=O)N(c4cc(C)cc(Br)c4)[C@@H]4CCC[C@H]4O)[C@@H]3OC)nn2)cc(F)c1F [Example 1.3.12R, (2R,3R,4S,5R,6R)-N-(3-bromo-5-methylphenyl)-4-(4-(3,4-difluoro-5-methoxyphenyl)-1H-1,2,3-triazol-1-yl)-5-hydroxy-N-((1R,2R)-2-hydroxycyclopentyl)-6-(hydroxymethyl)-3-methoxytetrahydro-2H-pyran-2-carboxamide] is 14-fold higher in IC50: 28.8 nM for the first, 411 nM for the second.

First: CO[C@@H]1[C@@H](n2cc(-c3cc(F)c(F)c(F)c3)nn2)[C@@H](O)[C@@H](CO)O[C@H]1C(=O)N(c1cc(Br)cc(C#N)c1)[C@H]1CC[C@@H]1O [Example 2.1.5, (2R,3R,4S,5R,6R)-N-(3-bromo-5-cyanophenyl)-5-hydroxy-N-((1S,2S)-2-hydroxycyclobutyl)-6-(hydroxymethyl)-3-methoxy-4-(4-(3,4,5-trifluorophenyl)-1H-1,2,3-triazol-1-yl)tetrahydro-2H-pyran-2-carboxamide]
Second: CO[C@@H]1[C@@H](n2cc(-c3cc(F)c(F)c(F)c3)nn2)[C@@H](O)[C@@H](CO)O[C@H]1C(=O)N(c1cc(Br)cc(Br)c1)[C@@H]1CC[C@H]1O [Example 2.1.11R, (2R,3R,4S,5R,6R)-N-(3,5-dibromophenyl)-5-hydroxy-N-((1R,2R)-2-hydroxycyclobutyl)-6-(hydroxymethyl)-3-methoxy-4-(4-(3,4,5-trifluorophenyl)-1H-1,2,3-triazol-1-yl)tetrahydro-2H-pyran-2-carboxamide]
The IC50 of the first is 7.5-fold lower: 44.5 nM for the first, 334 nM for the second. The first is the more potent here.

Compared with CO[C@@H]1[C@@H](n2cc(-c3ccc(C)c(F)c3F)nn2)[C@@H](O)[C@@H](CO)O[C@H]1C(=O)N(c1cc(Cl)cc(Cl)c1)[C@H]1CC[C@@H]1O [Example 2.11.2, (2R,3R,4S,5R,6R)-N-(3,5-dichlorophenyl)-4-(4-(2,3-difluoro-4-methylphenyl)-1H-1,2,3-triazol-1-yl)-5-hydroxy-N-((1S,2S)-2-hydroxycyclobutyl)-6-(hydroxymethyl)-3-methoxytetrahydro-2H-pyran-2-carboxamide], CO[C@@H]1[C@@H](n2cc(-c3ccc(C)c(F)c3F)nn2)[C@@H](O)[C@@H](CO)O[C@H]1C(=O)N(c1cc(Cl)cc(C#N)c1)[C@H]1CCC[C@@H]1O [Example 1.11.4, (2R,3R,4S,5R,6R)-N-(3-chloro-5-cyanophenyl)-4-(4-(2,3-difluoro-4-methylphenyl)-1H-1,2,3-triazol-1-yl)-5-hydroxy-N-((1S,2S)-2-hydroxycyclopentyl)-6-(hydroxymethyl)-3-methoxytetrahydro-2H-pyran-2-carboxamide] is 1.9-fold lower in IC50: 42.7 nM for the first, 21.9 nM for the second.

Compared with CO[C@@H]1[C@@H](n2cc(-c3cc(F)cc(Br)c3)nn2)[C@@H](O)[C@@H](CO)O[C@H]1C(=O)N(c1cc(C)cc(C#N)c1)[C@H]1CCC[C@@H]1O [Example 1.10.8, (2R,3R,4S,5R,6R)-4-(4-(3-bromo-5-fluorophenyl)-1H-1,2,3-triazol-1-yl)-N-(3-cyano-5-methylphenyl)-5-hydroxy-N-((1S,2S)-2-hydroxycyclopentyl)-6-(hydroxymethyl)-3-methoxytetrahydro-2H-pyran-2-carboxamide], CO[C@@H]1[C@@H](n2cc(-c3cc(F)cc(Br)c3)nn2)[C@@H](O)[C@@H](CO)O[C@H]1C(=O)N(c1cc(C)cc(C#N)c1)[C@@H]1CC[C@H]1O [Example 2.10.8R, (2R,3R,4S,5R,6R)-4-(4-(3-bromo-5-fluorophenyl)-1H-1,2,3-triazol-1-yl)-N-(3-cyano-5-methylphenyl)-5-hydroxy-N-((1R,2R)-2-hydroxycyclobutyl)-6-(hydroxymethyl)-3-methoxytetrahydro-2H-pyran-2-carboxamide] is 7.6-fold higher in IC50: 157 nM for the first, 1190 nM for the second. The first is the more potent here.

CC(=O)O[C@@H]1[C@@H](n2cc(-c3cc(F)c(F)c(F)c3)nn2)[C@@H](O)[C@@H](CO)O[C@H]1C(=O)N(c1cc(Cl)cc(C#N)c1)[C@H]1CCC[C@@H]1O [Example 1A.1.4, (2R,3R,4S,5R,6R)-2-((3-chloro-5-cyanophenyl)((1S,2S)-2-hydroxycyclopentyl)carbamoyl)-5-hydroxy-6-(hydroxymethyl)-4-(4-(3,4,5-trifluorophenyl)-1H-1,2,3-triazol-1-yl)tetrahydro-2H-pyran-3-yl acetate] and CO[C@@H]1[C@@H](n2cc(-c3cc(F)c(F)c(F)c3)nn2)[C@@H](O)[C@@H](CO)O[C@H]1C(=O)N(c1cc(Cl)cc(C#N)c1)[C@H]1CCC[C@@H]1O [Example 1.1.4, (2R,3R,4S,5R,6R)-N-(3-chloro-5-cyanophenyl)-5-hydroxy-N-((1S,2S)-2-hydroxycyclopentyl)-6-(hydroxymethyl)-3-methoxy-4-(4-(3,4,5-trifluorophenyl)-1H-1,2,3-triazol-1-yl)tetrahydro-2H-pyran-2-carboxamide] are within 1.5-fold of each other in IC50: 25.3 nM for the first, 27.3 nM for the second.

First: CO[C@@H]1[C@@H](n2cc(-c3cc(F)c(C)c(F)c3)nn2)[C@@H](O)[C@@H](CO)O[C@H]1C(=O)N(c1cc(Cl)cc(C#N)c1)[C@H]1CCC[C@@H]1O [Example 1.4.4, (2R,3R,4S,5R,6R)-N-(3-chloro-5-cyanophenyl)-4-(4-(3,5-difluoro-4-methylphenyl)-1H-1,2,3-triazol-1-yl)-5-hydroxy-N-((1S,2S)-2-hydroxycyclopentyl)-6-(hydroxymethyl)-3-methoxytetrahydro-2H-pyran-2-carboxamide]
Second: CO[C@@H]1[C@@H](n2cc(-c3cc(F)c(Cl)c(Cl)c3)nn2)[C@@H](O)[C@@H](CO)O[C@H]1C(=O)N(c1cc(Cl)cc(C#N)c1)[C@H]1CC[C@@H]1O [Example 2.17.4, (2R,3R,4S,5R,6R)-N-(3-chloro-5-cyanophenyl)-4-(4-(3,4-dichloro-5-fluorophenyl)-1H-1,2,3-triazol-1-yl)-5-hydroxy-N-((1S,2S)-2-hydroxycyclobutyl)-6-(hydroxymethyl)-3-methoxytetrahydro-2H-pyran-2-carboxamide]
The IC50 of the first is 4.6-fold lower: 17.3 nM for the first, 79.2 nM for the second. The first is the more potent here.

Compared with CO[C@@H]1[C@@H](n2cc(-c3ccc(Br)c(F)c3F)nn2)[C@@H](O)[C@@H](CO)O[C@H]1C(=O)N(c1cc(F)cc(C#N)c1)[C@H]1CC[C@@H]1O [Example 2.12.7, (2R,3R,4S,5R,6R)-4-(4-(4-bromo-2,3-difluorophenyl)-1H-1,2,3-triazol-1-yl)-N-(3-cyano-5-fluorophenyl)-5-hydroxy-N-((1S,2S)-2-hydroxycyclobutyl)-6-(hydroxymethyl)-3-methoxytetrahydro-2H-pyran-2-carboxamide], CO[C@@H]1[C@@H](n2cc(-c3cc(F)cc(Cl)c3)nn2)[C@@H](O)[C@@H](CO)O[C@H]1C(=O)N(c1cc(Br)cc(C#N)c1)[C@H]1CCC[C@@H]1O [Example 1.9.5, (2R,3R,4S,5R,6R)-N-(3-bromo-5-cyanophenyl)-4-(4-(3-chloro-5-fluorophenyl)-1H-1,2,3-triazol-1-yl)-5-hydroxy-N-((1S,2S)-2-hydroxycyclopentyl)-6-(hydroxymethyl)-3-methoxytetrahydro-2H-pyran-2-carboxamide] is 2.1-fold lower in IC50: 48 nM for the first, 22.9 nM for the second.

CO[C@@H]1[C@@H](n2cc(-c3cc(F)c(F)c(F)c3)nn2)[C@@H](O)[C@@H](CO)O[C@H]1C(=O)N(c1cc(Cl)cc(Cl)c1)[C@H]1CC[C@@H]1O [Example 2.1.2, (2R,3R,4S,5R,6R)-N-(3,5-dichlorophenyl)-5-hydroxy-N-((1S,2S)-2-hydroxycyclobutyl)-6-(hydroxymethyl)-3-methoxy-4-(4-(3,4,5-trifluorophenyl)-1H-1,2,3-triazol-1-yl)tetrahydro-2H-pyran-2-carboxamide] and CO[C@@H]1[C@@H](n2cc(-c3ccc(Cl)c(Cl)c3)nn2)[C@@H](O)[C@@H](CO)O[C@H]1C(=O)N(c1cc(Cl)cc(C#N)c1)[C@H]1CCC[C@@H]1O [Example 1.8.4, (2R,3R,4S,5R,6R)-N-(3-chloro-5-cyanophenyl)-4-(4-(3,4-dichlorophenyl)-1H-1,2,3-triazol-1-yl)-5-hydroxy-N-((1S,2S)-2-hydroxycyclopentyl)-6-(hydroxymethyl)-3-methoxytetrahydro-2H-pyran-2-carboxamide] are within 1.5-fold of each other in IC50: 51.8 nM for the first, 75.9 nM for the second.

CO[C@@H]1[C@@H](n2cc(-c3ccc(C#N)c(F)c3)nn2)[C@@H](O)[C@@H](CO)O[C@H]1C(=O)N(c1cc(Br)cc(C#N)c1)[C@H]1CCC[C@@H]1O [Example 1.16.5, (2R,3R,4S,5R,6R)-N-(3-bromo-5-cyanophenyl)-4-(4-(4-cyano-3-fluorophenyl)-1H-1,2,3-triazol-1-yl)-5-hydroxy-N-((1S,2S)-2-hydroxycyclopentyl)-6-(hydroxymethyl)-3-methoxytetrahydro-2H-pyran-2-carboxamide] gave an IC50 of 62 nM.
